Consider two compounds from publication PMC3722296 (PLoS ONE, 2013).

In one data set the test system is S. aureus ATCC25923. It counts as cell-based, Staphylococcus aureus. The protocol: (§1) Different S. aureus strains described above were first pre-cultured aerobically at 37°C for 20 h in a Mueller-Hinton-Broth (MHB) medium, pH 7.3 (Difco Laboratories, Detroit, MI). Bacteria were suspended at absorbance of 0.001 at 620 nm in the MHB medium. […] Ten µl final volumes (10–200 µg/mL) of synthetic peptides (LL-37, bCAT, hCAT and bCTL) were incubated in microtitration plates with 90 µl of a mid-logarithmic phase culture of bacteria, with a starting absorbance of 0.001 at 620 nm. In the initial inoculi, bacteria were quantified by the agar plate spreading method which was 5×10^5 colony forming units (CFU)/mL. Tetracycline (10 mg/L) and Cefotaxime (0.1 mg/L) were used as positive controls. Microbial growth was assessed by the increase of absorbance after 24 h incubation at 37°C., [29] The A620 nm value of control cultures growing in the absence of peptide and antibiotics was defined as 100% growth. A620 nm zero with the antibiotics (Tetracycline and Cefotaxime) was taken as 100% inhibition. Absence of bacterial growth was verified by agar plate spreading. Each assay was performed in triplicates.
(§2) The MIC values (µg/mL) are reported as means of three independent experiments. To determine significance, between different peptides (rows) and bacterial strains (columns), one way ANOVA was used. Overall significance and correlation was evaluated by 4×4 factorial ANOVA for independent samples. Significance was accepted at p≤0.05.

The next data set relates to S. aureus ATCC49775. It is filed as cell-based, Staphylococcus aureus. The protocol:
as §1, §2

The next data set relates to S. aureus S1 (MRSA). It counts as cell-based, Staphylococcus aureus. As to the method:
(§3) S1 was isolated from the blood of a patient and S2 was isolated from the sputum of a neonate. After isolation and identification, S. aureus strains were assessed for their susceptibility to various antibiotics, using the agar disc diffusion method. S1 was found Methicillin resistant (MRSA) and is also resistant to Amoxicillin, Oxacillin, Amikacin, Tobramycin, Fluoroquinolones, Erythromycin and Clindamycin. However, it was susceptible to Gentamicin, Synercid, Co-trimoxazole, Rifampicin, Fusidic acid, Vancomycin, Teicoplanin and Linezolid.
as §1, §2

The test system of a further data set is S. aureus S2 (MSSA). It is filed as cell-based, Staphylococcus aureus. The protocol:
as §3, §1, §2

Data set [1] deals with S. aureus metallo-protease aureolysin. The note with it: cited from earlier work. The source says:
Staphylococcus aureus is the most frequently isolated pathogen in Gram-positive sepsis, often involved in blood clotting disorders and destruction of endocardial tissue. S. aureus has developed several mechanisms to avoid immune response including resistance to AMPs, [13] impairment of phagocyte recruitment, [14] escape from neutrophil extracellular traps, [15] interference with complement, [16] neutrophil lysis, resistance to oxidative burst and non-specific binding and degradation of immunoglobulins. The AMPs evasion mechanisms deployed by S. aureus include prote ...

Another data set has as its system S. aureus. The experiment in a line: Antibacterial activity against S. aureus, (strains together or not specified). The note with it: across ATCC49775, ATCC25923, S1, S2. It is filed as cell-based, Staphylococcus aureus. The protocol: as §1
The test system of data set [2] is staphylococcal proteases released into bacterial supernatants. The note with it: 37°C, 24 h, RP-HPLC.
Protocol: S. aureus strains were precultured and plated on the agar plates and cultivated for 24 h at 37°C. After incubation, one colony per isolate was transferred to 10 mL of the MHB medium and incubated at 37°C for about 30 h to late stationary growth phase. After incubation, cultures were centrifuged at 10,000×g for 15 min and supernatants were filtered using a 0.22 µM Millex®-GV (Millipore, Carrigtwohill, Ireland) to eliminate bacteria. The supernatants were stored at −20°C until further use. In order to check sterility, 1 mL of each supernatant was incubated at 37°C for 48 h. Absence of a colony was interpreted as lack of viable bacteria.
Triplicate wells were treated for each concentration of peptide. In parallel, several controls were performed: with and without peptides in MHB medium.
For which, protease inhibitor cocktail (complete protease inhibitors except metalloproteases) (Roche Diagnostic GmbH, Mannheim, Germany) supplemented with 100 µM of 1–10 phenanthroline (metalloprotease inhibitor) (Sigma Aldrich GmbH, Steinheim, Germany) was added to bacterial supernatants before the addition of synthetic peptides. The whole suspension was incubated at 37°C for 24 h prior to being analyzed by RP-HPLC.
The synthetic peptides treated with bacterial supernatants and different controls including culture medium, bacterial supernatants, and synthetic peptides were separated using a Dionex HPLC system (Ultimate 3000; Sunnyvale, CA USA) on a Nucleosil reverse-phase 300–5C18-column (4×250 mm; particle size, 5 µm; porosity, 300 Å) (Macherey Nagel Hoerdt, France). Absorbance was monitored at 214 nm, and the solvent system consisted of 0.1% (v/v) TFA in water (solvent A) and 0.09% (v/v) TFA in 70% (v/v) acetonitrile-water (solvent B). Elution was performed at a flow rate of 700 µL/min, with the gradient as indicated on chromatograms. Fractions were collected with one min time interval. They were subsequently concentrated by evaporation by using a speed-vac, however not allowing them to dry completely.
The N-terminal sequence of purified peptides was determined by automatic Edman degradation analysis on a Procise microsequencer (Applied Biosystems, Courtaboeuf, France). Samples purified by HPLC were loaded on polybrene-treated glass-fiber filters. Phenylthiohydantoin-amino acids (Pth-Xaa) were identified by chromatography on a C18 column (PTH C-18, 2.1 mm×200 mm).
Mass determination was carried out on a Brucker BIFLEX™ Matrix-Assisted Laser Desorption Ionization – Time-Of-Flight mass spectrometer (MALDI-TOF) (equipped with the high resolution optics (SCOUT™) with X–Y multi-sample probe, a gridless reflector and with the HIMAS™ linear detector). With a maximum accelerating potential of 30 kV, the system can be operated either in linear or the reflective mode. Ionization was carried out with a 337-nm beam from a nitrogen laser with a repetition rate of 3 Hz. The output signal from the detector was digitized at a sampling rate of 250 MHz in linear mode and 500 MHz in reflector mode using a 1 GHz digital oscilloscope (Lecroy model). Brucker supplied software hosted in Sun sparcworkstation was used for data processing and the instrumental control. […] These studies were realized using the matrix α-cyano-4-hydroxycinnamic acid, obtained from Sigma, and prepared as a saturated solution in acetone. A total of 1–2 µl of the sample matrix aliquot solution was deposited on the probe and dried by ambient air. A thin layer matrix crystal was obtained after rapid spreading and evaporation. […] A micromolar analyte solution was applied to the matrix and allowed to dry under moderate vacuum. The whole preparation was washed by 1 μl of trifluoroacetic acid (0.5%) aqueous solution. This cleaning procedure helps remove remaining alkaline cations and often leads to an increase in sensitivity.
The next data set concerns human erythrocytes. The note with it: cited from earlier work. The source says:
Due to continuous resistance development by S. aureus, the interest for natural AMPs is increasing because some of them display potent antibacterial activity. However, secondary reactions such as hemolytic activity, [36] limit their use as systemic anti-infective drugs. Until recently, no such reaction was reported for the antimicrobial Cgs-derived peptides in the literature. Several CgA-derived peptides were previously characterized to display antimicrobial properties, [9] however, data concerning killing of S. aureus is not reported. CAT was previously reported, to be active against diff ...

The mark [3] stands for this setting: MIC = 100% growth inhibition, MHB pH 7.3, 5×10^5 CFU/mL, 24 h 37°C, A620 nm, mean of triplicate (n = 3).

Converted amounts (≈) assume the structure as drawn. Where two headings read alike, the source gives them in different places. Where no end group is shown, it is not given here.

The term MIC denotes the lowest concentration found to suppress growth. Low values mean inhibition by little substance, high ones a need for much substance. In the case of `CC[C@H](C)[C@H](NC(=O)[C@H](CCCCN)NC(=O)[C@H](CCC(=O)O)NC(=O)[C@H](CCCCN)NC(=O)[C@H](CO)NC(=O)[C@H](CCCCN)NC(=O)[C@H](CCCNC(=N)N)NC(=O)[C@H](Cc1ccccc1)NC(=O)[C@H](Cc1ccccc1)NC(=O)[C@H](CC(=O)O)NC(=O)CNC(=O)[C@H](CC(C)C)NC(=O)[C@@H](N)CC(C)C)C(=O)NCC(=O)N[C@@H](CCCCN)C(=O)N[C@@H](CCC(=O)O)C(=O)N[C@@H](Cc1ccccc1)C(=O)N[C@@H](CCCCN)C(=O)N[C@@H](CCCNC(=N)N)C(=O)N[C@H](C(=O)N[C@H](C(=O)N[C@@H](CCC(N)=O)C(=O)N[C@@H](CCCNC(=N)N)C(=O)N[C@H](C(=O)N[C@@H](CCCCN)C(=O)N[C@@H](CC(=O)O)C(=O)N[C@@H](Cc1ccccc1)C(=O)N[C@@H](CC(C)C)C(=O)N[C@@H](CCCNC(=N)N)C(=O)N[C@@H](CC(N)=O)C(=O)N[C@@H](CC(C)C)C(=O)N[C@H](C(=O)N1CCC[C@H]1C(=O)N[C@@H](CCCNC(=N)N)C(=O)N[C@H](C(=O)N[C@@H](CCC(=O)O)C(=O)N[C@@H](CO)C(=O)O)[C@@H](C)O)C(C)C)[C@@H](C)CC)C(C)C)[C@@H](C)CC` [LL-37, reference compound], the MIC in the data set with S. aureus ATCC25923 (setting [3]) turned out to be 30 µg/mL (≈ 6.68 µM); in the data set with S. aureus ATCC49775 (setting [3]) it was 30 µg/mL (≈ 6.68 µM); with S. aureus S1 (MRSA) (setting [3]) it was 30 µg/mL (≈ 6.68 µM); against S. aureus S2 (MSSA) (setting [3]), 35 µg/mL (≈ 7.79 µM). In data set [1], the cleavage by aureolysin entry is “cleave and inactivate”.

As for RSMRLSFRARGYGFR [bCTL, cateslytin], the MIC was determined as 40 µg/mL with S. aureus ATCC25923 (ATCC25923, 24 h, pH 7.3); 37 µg/mL in the data set with S. aureus ATCC49775 (ATCC49775, 24 h, pH 7.3); 37 µg/mL against S. aureus S1 (MRSA) (S1, 24 h, pH 7.3); 45 µg/mL with S. aureus S2 (MSSA) (S2, 24 h, pH 7.3). Further, the “MIC value against different strains of S. aureus” value in the data set on S. aureus fell in the range of 37 to 45 µg/mL. Also, the “degradation by any of the staphylococcal strains tested (four supernatants)” value in data set [2] (ATCC49775, ATCC25923, S1, S2 supernatants, peptide at MIC concentration) was “not degraded”. Besides, the “degradation by four strain supernatants in presence of protease inhibitors” value in data set [2] (protease inhibitor cocktail + 100 µM 1–10 phenanthroline) is recorded as “remains unaffected”. Further, the hemolytic activity result with human erythrocytes was “not hemolytic”.
